From ChEMBL document CHEMBL1201862, “PubChem BioAssay data set” (2004)
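Compound exposure: 48 hours, 5 concentrations, 96-well plates. GI50 = concentration required for 50% inhibition of growth.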 The source made the active and inactive calls. Rule as the data show it: active = GI50 up to about 1.1 µM and inactive = higher.

Legend:
Assay in all cases: NCI anticancer screen, dose series, 48 h
[1] = tested on: COLO 205
[2] = tested on: SF-295
[3] = tested on: HT-29
[4] = tested on: A549
[5] = tested on: SK-OV-3
[6] = tested on: NCI/ADR-RES
[7] = tested on: T47D
[8] = tested on: OVCAR-4
[9] = tested on: NCI-H460
[10] = tested on: M14
[11] = tested on: SK-MEL-28
[12] = tested on: OVCAR-5
[13] = tested on: SNB-75
[14] = tested on: SK-MEL-5
[15] = tested on: LOX IMVI
[16] = tested on: A498
[17] = tested on: SF-268
[18] = tested on: OVCAR-8
[19] = tested on: IGROV-1
[20] = tested on: NCI-H522
[21] = tested on: EKVX
[22] = tested on: RPMI-8226
[23] = tested on: CAKI-1
[24] = tested on: MDA-MB-231
[25] = tested on: UO-31
[26] = tested on: NCI-H226
[27] = tested on: MOLT-4
[28] = tested on: RXF 393
[29] = tested on: OVCAR-3
[30] = tested on: UACC-257
[31] = tested on: NCI-H23
[32] = tested on: BT-549
[33] = tested on: ACHN
[34] = tested on: HOP-62
[35] = tested on: HCT-116
[36] = tested on: DU-145
[37] = tested on: Malme-3M
[38] = tested on: HOP-92
[39] = tested on: KM12
[40] = tested on: SNB-19
[41] = tested on: 786-0
[42] = tested on: SN12C
[43] = tested on: K562
[44] = tested on: MDA-MB-435
[45] = tested on: SF-539
[46] = tested on: HCT-15
[47] = tested on: U-251
[48] = tested on: SW-620
[49] = tested on: TK-10
[50] = tested on: SK-MEL-2
[51] = tested on: SR
[52] = tested on: MCF7
[53] = tested on: CCRF-CEM
[54] = tested on: Hs-578T
[55] = tested on: HL-60
[56] = tested on: UACC-62
[57] = tested on: PC-3

For `N#CC(C(=O)c1cccnc1Cl)c1nc2cc(C(F)(F)F)ccc2s1` (stereo unspecified), the GI50 [1] was 44.2 µM (inactive), the GI50 [2] was 27.7 µM (inactive) and the GI50 [3] was 28.3 µM (inactive). The GI50 [4] was > 100 µM (inactive), the GI50 [5] was 62.7 µM (inactive) and the GI50 [6] was 65.5 µM (inactive). The GI50 [7] was > 100 µM (inactive), the GI50 [8] was 67 µM (inactive) and the GI50 [9] was 59.6 µM (inactive). The GI50 [10] was 50.8 µM (inactive), the GI50 [11] was 56.8 µM (inactive) and the GI50 [12] was 33.9 µM (inactive). For the same compound, the GI50 [13] was 25.3 µM (inactive), the GI50 [14] was > 100 µM (inactive) and the GI50 [15] was 37.3 µM (inactive). The GI50 [16] was 26.7 µM (inactive), the GI50 [17] was 64.9 µM (inactive) and the GI50 [18] was > 100 µM (inactive). For the same compound, the GI50 [19] was > 100 µM (inactive), the GI50 [20] was 19.8 µM (inactive) and the GI50 [21] was 64.9 µM (inactive). The GI50 [22] was 41.6 µM (inactive), the GI50 [23] was > 100 µM (inactive) and the GI50 [24] was 54 µM (inactive). For the same compound, the GI50 [25] was 39.8 µM (inactive), the GI50 [26] was 44.2 µM (inactive) and the GI50 [27] was > 100 µM (inactive). The GI50 [28] was 42.3 µM (inactive), the GI50 [29] was > 100 µM (inactive) and the GI50 [30] was 75 µM (inactive). For the same compound, the GI50 [31] was 30.8 µM (inactive), the GI50 [32] was 37.4 µM (inactive) and the GI50 [33] was > 100 µM (inactive). The GI50 [34] was 34.8 µM (inactive), the GI50 [35] was 26.1 µM (inactive) and the GI50 [36] was > 100 µM (inactive). The GI50 [37] was 37.1 µM (inactive), the GI50 [38] was 12.4 µM (inactive) and the GI50 [39] was 58.9 µM (inactive). For the same compound, the GI50 [40] was 77.3 µM (inactive), the GI50 [41] was 88.9 µM (inactive) and the GI50 [42] was 27.7 µM (inactive). The GI50 [43] was 60.5 µM (inactive), the GI50 [44] was 47.2 µM (inactive) and the GI50 [45] was 99.3 µM (inactive). For the same compound, the GI50 [46] was 35.3 µM, the GI50 [47] was 78.3 µM (inactive) and the GI50 [48] was 47.1 µM (inactive). For the same compound, the GI50 [49] was 55.5 µM (inactive).

For `CC(=O)NC1C(OC2C(CO)OC(OCC3OC(n4ccc(N)nc4=O)C(O)C3O)C(NC(C)=O)C2O)OC(CO)C(O)C1O` (stereo unspecified), the GI50 [1] was > 100 µM (inactive), the GI50 [2] was > 100 µM (inactive) and the GI50 [3] was > 100 µM (inactive). For the same compound, the GI50 [50] was > 100 µM (inactive), the GI50 [4] was > 100 µM (inactive) and the GI50 [5] was > 100 µM (inactive). For the same compound, the GI50 [6] was > 100 µM (inactive), the GI50 [7] was > 100 µM (inactive) and the GI50 [8] was > 100 µM (inactive). For the same compound, the GI50 [9] was > 89.3 µM (inactive), the GI50 [51] was > 100 µM (inactive) and the GI50 [52] was > 94.6 µM (inactive). For the same compound, the GI50 [10] was > 100 µM (inactive), the GI50 [11] was > 100 µM (inactive) and the GI50 [53] was 12.1 µM (inactive). The GI50 [12] was > 100 µM (inactive), the GI50 [54] was > 100 µM (inactive) and the GI50 [13] was > 100 µM (inactive). For the same compound, the GI50 [14] was > 100 µM (inactive), the GI50 [15] was > 100 µM (inactive) and the GI50 [16] was > 100 µM (inactive). The GI50 [17] was > 100 µM (inactive), the GI50 [18] was > 91.2 µM (inactive) and the GI50 [55] was > 34.6 µM (inactive). The GI50 [19] was > 100 µM (inactive), the GI50 [20] was 9.2 µM (inactive) and the GI50 [21] was > 100 µM (inactive). For the same compound, the GI50 [22] was > 100 µM (inactive), the GI50 [23] was > 100 µM (inactive) and the GI50 [24] was > 100 µM (inactive). The GI50 [25] was > 100 µM (inactive), the GI50 [26] was > 100 µM (inactive) and the GI50 [27] was > 29.4 µM (inactive). For the same compound, the GI50 [28] was > 100 µM (inactive), the GI50 [29] was > 100 µM (inactive) and the GI50 [30] was > 100 µM (inactive). The GI50 [31] was 97.9 µM (inactive), the GI50 [32] was > 100 µM (inactive) and the GI50 [33] was 99.8 µM (inactive). For the same compound, the GI50 [34] was > 100 µM (inactive), the GI50 [35] was > 100 µM (inactive) and the GI50 [36] was > 100 µM (inactive). For the same compound, the GI50 [37] was 5.97 µM (inactive), the GI50 [38] was > 100 µM (inactive) and the GI50 [39] was > 100 µM (inactive). For the same compound, the GI50 [40] was > 100 µM (inactive), the GI50 [56] was > 100 µM (inactive) and the GI50 [41] was > 100 µM (inactive). The GI50 [42] was > 100 µM (inactive), the GI50 [43] was > 100 µM (inactive) and the GI50 [44] was > 100 µM (inactive). The GI50 [45] was > 100 µM (inactive), the GI50 [46] was > 100 µM and the GI50 [47] was > 100 µM (inactive). The GI50 [48] was > 100 µM (inactive), the GI50 [57] was > 100 µM (inactive) and the GI50 [49] was > 100 µM (inactive).
